Publication PMC7838546, “A Thermostable, Modified Cathelicidin-Derived Peptide With Enhanced Membrane-Active Activity Against Salmonella enterica serovar Typhimurium” (Frontiers in Microbiology, 2021)
Ends that are not written are not given here.

Columns and labels:
Experiment in all cases: MIC/MBC, broth microdilution and colony count
Type in all cases: cell-based, Salmonella enterica serovar 4,5,12:i:-
[1] = test system: S. enterica serovar 4,5,12:i:- H2-065 (foodborne isolate); conditions: H2-065, pork liver, resistant Amp, T, broth microdilution, 37°C, 24 h
Method: (§1) Salmonella enterica serovar Typhimurium ATCC 13311, 24 drug-resistant foodborne and eleven drug-resistant human borne S. enterica serovar Typhimurium and 4,5,12:i:- isolates (Table 1) were used as test microorganisms. They were previously isolated for molecular characterization in 2014 and kindly provided by Dr. Soraya Chaturongakul (Mahidol University, Thailand) ([Huoy et al., 2014]). All bacteria were cultured in Tryptic Soy Broth (TSB) and incubated at 37°C for 18 h. Mueller Hinton Broth (MHB) was then used to wash and rinse the bacteria. The bacterial suspensions were then diluted to obtain concentrations of 10^7 CFU/ml for inoculations.
(§2) A modified version of the National Committee for Clinical Laboratory Standards (NCCLS) broth microdilution method ([Steinberg et al., 1997]) was used to determine the minimum inhibitory concentrations (MICs) of peptide and compared to that of nisin. Fifty microliters of two-fold serial dilutions of each peptide [0.98–250 μg/ml in 0.01% (v/v) acetic acid and 0.2% (w/v) bovine serum albumin (BSA, Sigma-Aldrich, MO, United States)], were incubated with 50 μl of bacterial suspensions (approximately 10^7 CFU/ml) at 37°C for 24 h in a shaking incubator. MICs were taken as the lowest concentration of peptide at which growth was inhibited as observed by visual inspection. Bacterial cultures without peptides and uncultured broth were used as positive and negative controls, respectively. Minimal bactericidal concentrations (MBCs) were determined using a colony count assay ([Clinical Laboratory Standards Institute [CLSI], 2015]). Fifty microliters of samples from each non-turbid well in the MIC determination experiment was plated on Mueller Hinton Agar (MHA) and colonies were observed after overnight incubation at 37°C. MBCs were designated as the least concentration showing no colony growth on the plate. All of experiments were performed in triplicate.

[2] = test system: S. enterica serovar 4,5,12:i:- H2-055 (foodborne isolate); conditions: H2-055, pork liver, resistant Amp, T, broth microdilution, 37°C, 24 h
Method: as §1, §2

[3] = test system: S. enterica serovar 4,5,12:i:- H2-047 (foodborne isolate); conditions: H2-047, pork liver, resistant Amp, intermediate Cp, broth microdilution, 37°C, 24 h
Method: as §1, §2

Measured: MIC

Nisin: authorized food preservative peptide, binds lipid II and forms membrane pores (ITSISLCTPGCKTGALMGCNMKTATCHCSIHVSK; cysteine pairing not given here; also: lantibiotic nisin-A; UniProt P13068 24-57, looked up)
>1000 µg/mL: all assays above
